Holding throughout (format): cell-based, mouse
The test system of one assay is HIF-1α. Kind of assay: HIF-1α and GLUT1 protein levels in isolated pancreatic islets (immunoblotting). Particulars: islets treated with GKA50 alone, 20 hours. For orientation: In western blotting, separated proteins are transferred to a membrane and probed.
Assay [1] concerns isolated pancreatic islets. Kind of assay: Static batch incubation (insulin secretion) of isolated islets.
In assay [2] the test system is isolated pancreatic islets. Kind of assay: Measurements of cytoplasmic free Ca2+-concentration in islets.
The test system of a further assay is HIF-1α target genes. Kind of assay: Gene expression of HIF-1α target genes in isolated islets (RT-qPCR). On the technique in general: Quantitative PCR measures a nucleic acid by following its amplification.
Assay [3] deals with isolated pancreatic islets. Kind of assay: Cellular hypoxia in isolated islets (pimonidazole adducts). On the procedure: For experiments using the hypoxic marker pimonidazole, islets were cultured overnight in RPMI 1640 with 11 mM glucose and fasted for 1 hour in RPMI 1640 with 5.5 mM glucose. Subsequently islets were moved to medium containing 5.5 mM, 11 mM or 22 mM glucose, either with or without the glucokinase activator 10 μM of the glucokinase activator GKA50 (Sigma), 50 μM nifedipine (Sigma) or 100 μM diaxozide (Sigma) as indicated (FIGS. 1A and B). Islets were cultured during 8 hours before lysis. During the last 2 hours pimonidazole (Hypoxyprobe, HPI, Inc) was added to the medium. The hypoxic sample were cultured under 8% O2 during the last 2 hours before the lysis.
Islets were sonicated in RIPA buffer (50 mM Tris-HCl pH7.4, 150 mM NaCl, 1% NP-40, 0.5% Na deoxycholate, 0.1% SDS, 1 mM EDTA, protease inhibitor mix (Complete-Mini, Roche), 0.5 mM phenylmethylsulfonyl fluoride (PMSF) and 0.5 mM dithiothreitol). Lysates were cleared by centrifugation for 30 min at 14.000 r.p.m., and proteins were separated by SDS-PAGE and blotted onto nitrocellulose membranes. […]

The mark [4] stands for this setting: islets treated with GKA50 alone, 20 hours.

Regarding `COC[C@H](C)Oc1cc(O[C@@H](C)Cc2ccccc2)cc(C(=O)Nc2ccc(C(=O)O)cn2)c1` [GKA50], the “HIF-1α stabilization and GLUT1 protein levels” value in the assay on HIF-1α was “led to HIF-1α stabilization and increased GLUT1 protein levels”. Further, the basal insulin secretion result in assay [1] (3.3 mM glucose, after 20 hours treatment and 2 hours fasting) was “dose response-dependent increase in basal insulin secretion”. In assay [1] (16.7 mM glucose, after 20 hours treatment), the “insulin release at high glucose concentration” value is given as “without impacting on insulin release at high glucose concentration”. In assay [1] (GKA50-treated islets in absence (1.2) or presence (3.4) of the HIF-1α inhibitor), the secretory index is listed as 1.2 fold. Also, the insulin content result in assay [1] (islets treated with GKA50 with or without PX-478) is recorded as “no impact on insulin content”. Further, the “speed of [Ca2+]i response to glucose” value in assay [2] (20 μM GKA50 with or without 50 μM PX-478) is “faster response to glucose”. In addition, the “basal [Ca2+]i oscillations” value in assay [2] (3 mM glucose, after 20 hours 20 μM GKA50 with or without 50 μM PX-478 and 2 hours fasting) is “displayed [Ca^2+]i oscillations already under basal low glucose concentration”. For the same compound, in the assay with HIF-1α target genes (islets treated with GKA50, compared to untreated islets), the “Gck mRNA level” value is on record as “reduced”. In the assay with HIF-1α target genes (setting [4]), the “gene expression of Glut1, Igfbp3, Hk2, Pgk1 and Pdk1” value is “Induction”; the “mRNA expression of Ldha and Bnip3” value is listed as “not induced”. The “formation of pimonidazole adducts (cellular hypoxia)” value in assay [3] (isolated islets, 8 hours, 10 μM GKA50) is given as “increase in the formation of pimonidazole adducts”.

Turning to `CC1=Nc2ccc(Cl)cc2S(=O)(=O)N1` [diaxozide], in assay [3] (islets treated with GKA50 in the presence of 50 μM nifedipine or 100 μM diaxozide), the “levels of pimonidazole adducts” value is recorded as “no decrease in levels of pimonidazole adducts”.
